{"source": "patent US8742203B2", "about": "“Chemically Inducible Expression of Biosynthetic Pathways” (Metabolix, Inc., priority 2005, dated 2014)", "test_system": "1I Arabidopsis plants", "assay": "PHB yield in 1I plants, foliar applications of tebufenozide", "type": "in vivo, Arabidopsis thaliana", "source_text": "The genes required for the complete PHB production pathway, a β-ketothiolase (thiolase), an NADPH-acetoacetyl-CoA reductase (reductase) and a PHA synthase (synthase), were individually placed under the control of the minimal ^35S ecdysone-inducible promoter, fused to a plastid targeting signal, and cloned into a pCAMBIA (Centre for Application of Molecular Biology to International Agriculture, Canberra, Australia) based multigene plasmid containing the chimeric ecdysone receptor (A. Martinez, C. Sparks, C. A. Hart, J. Thompson, I. Jepson, Plant J. 19: 97 (1999)). This three-gene inducible construct is designated 3I. The single-gene inducible construct designated 1I contained the thiolase gene under the control of the inducible promoter, but unlike the 3I construct, it expressed the reductase and synthase genes under the control of the constitutive 35S-C4PPDK promoter (W. Chiu et al. Curr. Biol. 6: 325 (1996)).\nFurther analysis of the 1I construct by screening an additional 235 T1 1I plants identified plants capable of producing 2.5% and 2.6% dwt PHB respectively, in the presence and absence of foliar applications of the inducing agent tebufenozide. The ability of this construct to promote PHB production in a non-inducible fashion was confirmed through analysis of 72 T2 offspring of the best T1 1I plant. […]"}
{"compound": "CCc1ccc(C(=O)NN(C(=O)c2cc(C)cc(C)c2)C(C)(C)C)cc1", "note": "[tebufenozide]", "values": [{"measurement": "PHB produced by best plants", "setting": "additional 235 T1 1I plants screened, in the presence of foliar tebufenozide", "value": 2.5, "unit": "% dwt"}, {"measurement": "Average PHB accumulated", "setting": "treated T2 1I offspring of best T1 1I plant, in the presence of inducing agent", "value": "4.2±2.5", "unit": "% dwt"}]}
